Source: patent US9926319B2, “Pyridyl piperidines” (MERCK PATENT GMBH, priority 2014, dated 2018)
Read-outs that look alike come from different tables or passages of the source.

How the values were obtained:
[1] = tested on: Wnt pathway; assay: Cellular assay for Wnt pathway activity (luciferase reporter cell based assay); settings: HEK293 luciferase reporter cell line (ER-DSH, TCF dependent promoter), induced with estrogen (1 μM), read-out: 7df3 IC50
[2] = CLint (intrinsic clearance) assay, microsomal incubation; assay type: in vitro ADME, Human; settings: NADPH, 37° C., up to 30 min; for microsomal CLint at 0.8 μM: human, liver microsomes, pH 7.4, human liver microsomes 0.5 mg/mL protein; for Human Clint: human liver microsomes 0.5 mg/mL protein
Protocol: 2. CLint (Intrinsic Clearance) Assay
A Tecan Genesis workstation (RWS ASY 150/8) was used to perform the microsomal incubations. Analysis was carried out using a Waters ACQUITY UPLC system coupled to an ABSciex API3000 mass spectrometer. Data analysis was performed using Assay Explorer (Symyx).
0.1 M potassium phosphate buffer pH 7.4 containing 1 mM MgCl2
15 mM NADPH in phosphate buffer
5.0 mg protein/mL liver microsomes in phosphate buffer
Each experiment consists of 12 test and 2 reference compounds. The reference compounds are incubated as a cocktail.
Dilution of test compounds was done in 2 steps from a 10 mM DMSO stock solution. First 4 μL stock solution was added to 196 μL of 20% DMSO in potassium phosphate buffer pH 7.4. In a second step 10 μL of the first dilution were added to […] potassium phosphate buffer and 100 μL internal standard solution to a final concentration of 0.8 μM. 100 μL of the final compound dilution were aliquoted into a 96 deep well plate. 12.5 μL liver microsomes were added to each well (0.5 mg/mL final protein concentration) and the samples preincubated for 5 min at 37° C. and 800 rpm agitation.
After the preincubation, 250 μL cold acetonitrile were added to the 0 min samples to prevent a reaction. Following this, 12.5 μL NADPH solution were added to all wells to start the incubation, with the exception of the 0 min and 30 min controls without cofactor, where the NADPH was substituted for phosphate buffer.
The incubations were stopped after 5, 10, 20 and 30 min by adding 250 μL cold acetonitrile to the individual wells.
The quenched samples were then centrifuged at 4000 g for 1 h at 4° C. 100 μL of the supernatant were transferred into 96 well plates for analysis.
The metabolic stability of each compound was determined by measurement of the change in LC-MS/MS peak area over time. Assay Explorer software was used to automatically calculate the slope k of the decline. The intrinsic clearance (CLint) of each compound was then calculated according to the formula: CLint(μL/min/mg protein)=k1000/protein concentration.
CLint is shown for each compound in Table 3 below.

| IC50 ([1]; 24 h) [nM] | microsomal CLint at 0.8 μM [2] [µL/min/mg] | IC50 ([1]; 24 hours) [nM] | Human Clint [2] [µL/min/mg] | Structure (SMILES) |
| --- | --- | --- | --- | --- |
| 50 | 11 | – | – | CC(C)(O)Cn1cc(-c2ccc(-c3cncc(Cl)c3N3CCC4(CC3)CNC(=O)O4)cc2)cn1 [Example 43, 8-(3-Chloro-5-{4-[1-(2-hydroxy-2-methyl-propyl)-1H-pyrazol-4-yl]-phenyl}-pyridin-4-yl)-1-oxa-3,8-diaza-spiro[4.5]decan-2-one] |
| 23 | 28 | – | – | O=C1NCC2(CCN(c3c(Cl)cncc3-c3ccc4cnccc4c3)CC2)O1 [Example 50, 8-(3-Chloro-5-isoquinolin-6-yl-pyridin-4-yl)-1-oxa-3,8-diaza-spiro[4.5]decan-2-one] |
| 0.02 | 70 | – | – | CCC1=NNC(=O)C12CCN(c1c(Cl)cncc1-c1ccc3c(c1)CS(=O)(=O)N3C)CC2 [Example 52, 8-[3-Chloro-5-(1-methyl-2,2-dioxo-2,3-dihydro-1H-2l6-benzo[c]isothiazol-5-yl)-pyridin-4-yl]-4-ethyl-2,3,8-triaza-spiro[4.5]dec-3-en-1-one] |
| 6.1 | 23 | – | – | O=C1NCC2(CCN(c3c(Cl)cncc3-c3ccc(-c4cnn(C5CC5)c4)cc3)CC2)O1 [Example 60, 8-{3-Chloro-5-[4-(1-cyclopropyl-1H-pyrazol-4-yl)-phenyl]-pyridin-4-yl}-1-oxa-3,8-diaza-spiro[4.5]decan-2-one] |
| 21 | < 10 | – | – | CN1C(=O)Cc2cc(-c3cncc(Cl)c3N3CCC4(CC3)CC(=O)NC4=O)ccc21 [Example 65, 8-[3-Chloro-5-(1-methyl-2-oxo-2,3-dihydro-1H-indol-5-yl)-pyridin-4-yl]-2,8-diaza-spiro[4.5]decane-1,3-dione] |
| 1.4 | 65 | – | – | Cn1cc(-c2ccc(-c3cncc(Cl)c3N3CCC4(CC3)C(=O)Nc3cccnc34)cc2)cn1 [Example 68] |
| 1.1 | 89 | – | – | Cn1cc(-c2ccc(-c3cncc(Cl)c3N3CCC4(CC3)C(=O)Nc3ccccc34)cc2)cn1 [Example 69] |
| – | – | 20 | 24 | Cn1ncc2cc(-c3cncc(Cl)c3N3CCC4(CC3)C(=O)NCC4O)ccc21 (stereo not shown) [Example 70, 8-[3-Chloro-5-(1-methyl-1H-indazol-5-yl)-pyridin-4-yl]-4-hydroxy-2,8-diaza-spiro[4.5]decan-1-one] |
| 12 | 49 | – | – | Cn1cc(-c2ccc(-c3cncc(Cl)c3N3CCC4(CC3)NCCNC4=O)cc2)cn1 [Example 71, 9-{3-Chloro-5-[4-(1-methyl-1H-pyrazol-4-yl)-phenyl]-pyridin-4-yl}-1,4,9-triaza-spiro[5.5]undecan-5-one] |
| 9.1 | – | – | 36 | CN1c2ccc(-c3cncc(F)c3N3CCC4(CCNC4=O)CC3)cc2CS1(=O)=O [Example 76, 8-[3-Fluoro-5-(1-methyl-2,2-dioxo-2,3-dihydro-1H-2l6-benzo[c]isothiazol-5-yl)-pyridin-4-yl]-2,8-diaza-spiro[4.5]decan-1-one] |

Second part, the compound before the results:

| Structure (SMILES) | IC50 ([1]; 24 h) [nM] | microsomal CLint at 0.8 μM [2] [µL/min/mg] | IC50 ([1]; 24 hours) [nM] | Human Clint [2] [µL/min/mg] |
| --- | --- | --- | --- | --- |
| CN1c2ccc(-c3cncc(Cl)c3N3CCC4(CC3)C[C@@H](C(F)(F)F)NC4=O)cc2CS1(=O)=O [Example 42, (S)-8-[3-Chloro-5-(1-methyl-2,2-dioxo-2,3-dihydro-1H-2l6-benzo[c]isothiazol-5-yl)-pyridin-4-yl]-3-trifluoromethyl-2,8-diaza-spiro[4.5]decan-1-one] | 2.4 | 57 | – | – |
| CN1c2ccc(-c3cncc(Cl)c3N3CCC(N)(C(N)=O)CC3)cc2CS1(=O)=O [Example 44, 4-Amino-5′-chloro-3′-(1-methyl-2,2-dioxo-2,3-dihydro-1H-2l6-benzo[c]isothiazol-5-yl)-3,4,5,6-tetrahydro-2H-[1,4′]bipyridinyl-4-carboxylic acid amide] | 5.1 | < 10 | – | – |
| O=C1NCC2(CCN(c3c(Cl)cncc3-c3ccc4c(c3)CS(=O)(=O)C4)CC2)O1 [Example 48, 8-[3-Chloro-5-(2,2-dioxo-2,3-dihydro-1H-2l6-benzo[c]thiophen-5-yl)-pyridin-4-yl]-1-oxa-3,8-diaza-spiro[4.5]decan-2-one] | 42 | 23 | – | – |
| CN1c2ccc(-c3cncc(Cl)c3N3CCC4(CC3)C[C@H](C(F)(F)F)NC4=O)cc2CS1(=O)=O [Example 53, (R)-8-[3-Chloro-5-(1-methyl-2,2-dioxo-2,3-dihydro-1H-2l6-benzo[c]isothiazol-5-yl)-pyridin-4-yl]-3-trifluoromethyl-2,8-diaza-spiro[4.5]decan-1-one] | 15 | 42 | – | – |
| CCC1=NNC(=O)C12CCN(c1c(Cl)cncc1-c1ccc(-c3cnn(C)c3)cc1)CC2 [Example 54, 8-{3-Chloro-5-[4-(1-methyl-1H-pyrazol-4-yl)-phenyl]-pyridin-4-yl}-4-ethyl-2,3,8-triaza-spiro[4.5]dec-3-en-1-one] | 0.92 | 82 | – | – |
| O=C1NCC2(CCN(c3c(Cl)cncc3-c3ccc(-c4cnn(C5COC5)c4)cc3)CC2)O1 [Example 55, 8-{3-Chloro-5-[4-(1-oxetan-3-yl-1H-pyrazol-4-yl)-phenyl]-pyridin-4-yl}-1-oxa-3,8-diaza-spiro[4.5]decan-2-one] | 20 | 23 | – | – |
| Cn1cc(-c2ccc(-c3cncc(Cl)c3N3CCC4(CC3)C(=O)NN=C4C(F)(F)F)cc2)cn1 [Example 59, 8-{3-Chloro-5-[4-(1-methyl-1H-pyrazol-4-yl)-phenyl]-pyridin-4-yl}-4-trifluoromethyl-2,3,8-triaza-spiro[4.5]dec-3-en-1-one] | 17 | 43 | – | – |
| Cn1ncc2cc(-c3cncc(Cl)c3N3CCC4(CC3)C(=O)NN=C4C(F)(F)F)ccc21 [Example 61, 8-[3-Chloro-5-(1-methyl-1H-indazol-5-yl)-pyridin-4-yl]-4-trifluoromethyl-2,3,8-triaza-spiro[4.5]dec-3-en-1-one] | 17 | 38 | – | – |
| O=C1NCC2(CCN(c3c(Cl)cncc3-c3ccc(-c4cnn([C@H]5CCC[C@@H]5O)c4)cc3)CC2)O1 [Example 62, 8-(3-Chloro-5-{4-[1-((1S,2S)-2-hydroxy-cyclopentyl)-1H-pyrazol-4-yl]-phenyl}-pyridin-4-yl)-1-oxa-3,8-diaza-spiro[4.5]decan-2-one] | 34 | 37 | – | – |
| O=C1NCC2(CCN(c3c(Cl)cncc3-c3ccc(-c4cnn([C@@H]5CCC[C@H]5O)c4)cc3)CC2)O1 [Example 63, 8-(3-Chloro-5-{4-[1-((1R,2R)-2-hydroxy-cyclopentyl)-1H-pyrazol-4-yl]-phenyl}-pyridin-4-yl)-1-oxa-3,8-diaza-spiro[4.5]decan-2-one] | 30 | 29 | – | – |
| O=C1Cc2ccc(-c3cncc(Cl)c3N3CCC4(CCNC4=O)CC3)cc2N1 [Example 64, 8-[3-Chloro-5-(2-oxo-2,3-dihydro-1H-indol-6-yl)-pyridin-4-yl]-2,8-diaza-spiro[4.5]decan-1-one] | 19 | 49 | – | – |
| Cn1ncc2ccc(-c3cncc(Cl)c3N3CCC4(CC3)CC(=O)NC4=O)cc21 [Example 66, 8-[3-Chloro-5-(1-methyl-1H-indazol-6-yl)-pyridin-4-yl]-2,8-diaza-spiro[4.5]decane-1,3-dione] | 15 | < 10 | – | – |
| O=C1NCCNC12CCN(c1c(Cl)cncc1-c1ccc3oc(=O)[nH]c3c1)CC2 [Example 72, 9-[3-Chloro-5-(2-oxo-2,3-dihydro-benzooxazol-5-yl)-pyridin-4-yl]-1,4,9-triaza-spiro[5.5]undecan-5-one] | 35 | < 10 | – | – |
| CN1C(=O)Cc2ccc(-c3cncc(Cl)c3N3CCC(N)(C(N)=O)CC3)cc21 [Example 73, 4-Amino-5′-chloro-3′-(1-methyl-2-oxo-2,3-dihydro-1H-indol-6-yl)-3,4,5,6-tetrahydro-2H-[1,4′]bipyridinyl-4-carboxylic acid amide] | 12 | 17 | – | – |
| CN1C(=O)Cc2ccc(-c3cncc(Cl)c3N3CCC4(CC3)NCNC4=O)cc21 [Example 74, 8-[3-Chloro-5-(1-methyl-2-oxo-2,3-dihydro-1H-indol-6-yl)-pyridin-4-yl]-1,3,8-triaza-spiro[4.5]decan-4-one] | 20 | 20 | – | – |
| CN1c2ccc(-c3cncc(Cl)c3N3CCC4(CC3)NCNC4=O)cc2CS1(=O)=O [Example 75, 8-[3-Chloro-5-(1-methyl-2,2-dioxo-2,3-dihydro-1H-2l6-benzo[c]isothiazol-5-yl)-pyridin-4-yl]-1,3,8-triaza-spiro[4.5]decan-4-one] | 4.7 | 20 | – | – |
